According to US4963580A, “Substituted 5-hydroxy-2,3-dihydrobenzothiophenes as inhibitors of leukotriene biosynthesis” (Merck & Co., Inc., priority 1989, dated 1990):

Legend:
[1] = test system: production of leukotriene B4 (LTB4) in isolated human polymorphonuclear leukocytes (PMN); assay: inhibition of LTB4 production in isolated human polymorphonuclear leukocytes (Human PMN); format: cell-based; conditions: Leukocyte, 5 min, LTB4 by RIA, A23187 10 μM, 37° C., read-out: Polymorphonuclear Leucocyte (PMN) Activity, Human PMN IC50
Description: (§1) The assay is conducted as follows:
A. Preparation of Human PMN. Human blood is obtained by antecubital venepuncture from consenting volunteers who denied having taken medication within the previous 7 days. The blood is immediately added to 10% (v/v) trisodium citrate (0.13 M) or 5% (v/v) sodium heparin (1000 IU/mL). PMNs are isolated from anticoagulated blood by dextran sedimentation and centrifugation through Ficoll Hypaque (specific gravity 1.077), essentially as described by Boyum. (Boyum, A., Scand. J. Clin. Lab. Invest. 1968, 21 (Supp 97), 77). Contaminating erthrocytes are removed by lysis following exposure to ammonium chloride (0.16 M) in Tris buffer (pH 7.65), and the PMNs resuspended at 5×10^5 cells/mL in HEPES (15 mM) buffered Hanks balanced salt solution containing Ca^2+ (1.4 mM) and Mg^2+ (0.7 mM), pH 7.4. Viability is assessed by Trypan blue exclusion and is typically greater than 98%.
(§2) C. Generation and Radiommumoassay of LTB4. PMNs (0.5 mL; 2.5×10^5 cells) are placed in plastic tubes and incubated (37° C., 2 min) with test compounds at the desired concentration or vehicle control (DMSO, final concentration 0.2%). The synthesis of LTB4 is initiated by the addition of calcium inophore A23187 (final concentration 10 μM) or vehicle on control samples and allowed to proceed for 5 minutes at 37° C. The reactions are then terminated by the addition of cold methanol (0.25 mL) and samples of the entire PMN reaction mixture are removed for radiommunoassay of LTB4.
(§3) Samples (50 μl ) of authentic LTB4 of known concentration in radiommunoassay buffer (RIA) buffer (potassium phosphate 1 mM; disodium EDTA 0.1 mM; Thimerosal 0.025 mM; gelatin 0.1%, pH 7.3) or PMN reaction mixture diluted 1:1 with RIA buffer are added to reaction tubes.
Thereafter [3H]-LTB4 (10 nCu in 100 μl RIA buffer) and LTB4 antiserum (100 μL of a 1:3000 dilution in RIA buffer) are added and the tubes vortexed. Reactants are allowed to equilibrate by incubation overnight at 4° C. To separate antibody-bound from free LTB4, aliquots (50 μL) of activated charcoal (3% activated charcoal in RIA buffer containing 0.25% Dextran T-70) were added, the tubes vortexed, and allowed to stand at room temperature for 10 minutes prior to centrifugation (1500×g; 10 min; 4° C). The supernatents containing antibody-bound LTB4 are decanted into vials and Aquasol 2 (4 mL) was added. Radioactivity is quantified by liquid scintillation spectrometry. […] The specificity of the antiserium and the sensitivity of the procedure have been described in detail elsewhere. […] The amount of LTB4 produced in test and control approx. 20ng/10^6cells) samples are then calculated. Inhibitory dose response curves are constructed using a four parameter algorithm and from these the IC50 values are determined.

[2] = test system: production of leukotriene B4 (LTB4) in isolated rat polymorphonuclear leukocytes (PMN); assay: inhibition of LTB4 production in isolated rat polymorphonuclear leukocytes (Rat PMN); format: cell-based, rat (male Sprague Dawley); conditions: Leukocyte, 5 min, LTB4 by RIA, A23187 10 μM, 37° C., read-out: Polymorphonuclear Leucocyte (PMN) Activity, Rat PMN IC50
Description: as §1
B. Rat Peritoneal Polymorphonuclear leukocytes (PMN). Male Sprague Dawley rats were purchased from Taconic Farms, Germantown, NY. The animals were maintained on standard pellet diet and water ad lib. Elicited PMN were prepared from peritoneal exudates as follows: 8 ml of 12% sodium caseinate was injected intraperitoneally into male rats. After 18-20 hours, the rats were killed with CO2 and the peritoneal cavities were lavaged with Eagle's MEM (pH 7.7) without NaHCO3 but containing Earle's salts, L-glutamine, and 30 mM HEPES. The PMN were isolated by centrifugation, washed with MEM, filtered through lens paper to remove clumps, and adjusted to a concentration of 1×10^7 cells/ml.
as §2, §3
Thereafter [3H]-LTB4 (10 nCu in 100 μl RIA buffer) and LTB4 antiserum (100 μL of a 1:3000 dilution in RIA buffer) are added and the tubes vortexed. Reactants are allowed to equilibrate by incubation overnight at 4° C. To separate antibody-bound from free LTB4, aliquots (50 μL) of activated charcoal (3% activated charcoal in RIA buffer containing 0.25% Dextran T-70) were added, the tubes vortexed, and allowed to stand at room temperature for 10 minutes prior to centrifugation (1500×g; 10 min; 4° C). The supernatents containing antibody-bound LTB4 are decanted into vials and Aquasol 2 (4 mL) was added. Radioactivity is quantified by liquid scintillation spectrometry. […] The specificity of the antiserium and the sensitivity of the procedure have been described in detail elsewhere. (Rokach, J.; Hayes, E. C.; Griard, Y.; Lombardo. D. L.; Maycock, A. L.; Rosenthal, A. S.; Young, R. N.; Zamboni, R.; Zweerink, H. J. Prostaglandins Leukotrienes and Medicine 1984, 13, 21). The amount of LTB4 produced in test and control approx. 20ng/10^6cells) samples are then calculated. Inhibitory dose response curves are constructed using a four parameter algorithm and from these the IC50 values are determined.

[3] = test system: leukotriene biosynthesis in human polymorphonuclear leukocytes; conditions: known inhibitors of leukotriene biosynthesis; cited from earlier work
[4] = test system: production of leukotriene B4 (LTB4) in polymorphonuclear leukocytes (PMN); assay: LTB4 inhibition in the above described in vitro test (PMN, species not stated); format: cell-based; conditions: Leukocyte, standard compounds

SMILES	IC50 [1]	IC50 [2]	activity in human polymorphonuclear leukocytes assay [3]	IC50 [4]
C=CCc1c(O)ccc2c1CCS2 [R4 = --CH2 CH= CH2, R6 = H, 4-(propen-3-yl)-5-hydroxy-2,3-dihydrobenzothiophene]	2260 nM	887 nM	–	–
CCCc1cc2c(cc1O)CCS2 [R4 = H, R6 = --C3 H8, 6-propyl-2,3-dihydro-5-hydroxybenzothiophene]	326 nM	211 nM	–	–
CC(C)(C)c1cc2c(cc1O)CCS2 [R4 = H, R6 = --C4 H10, 6-t-butyl-2,3-dihydro-5-hydroxybenzothiophene]	142 nM	207 nM	–	–
C=CCc1cc2c(cc1O)CCS2 [R4 = H, R6 = --CH2 CH= CH2, 6-Allyl-5-hydroxy-2,3-dihydrobenzothiophene]	319 nM	190 nM	–	–
Oc1ccc2c(c1)CCS2 [R4 = H, R6 = H, 5-Hydroxy-2,3-dihydrobenzothiophene]	–	5230 nM	–	–
CC(Cc1ccc(O)c(O)c1)C(C)Cc1ccc(O)c(O)c1 (stereo not shown) [nordihydroguaiacetic acid, nordihydroguaiaretic acid]	–	–	active in this assay	86 nM
O=C1CCN(c2ccccc2)N1 [phenidone]	–	–	active in this assay	9250 nM
